For five molecules, LD10, ILS and MST results are on record in ChEMBL document CHEMBL1122786, “Synthesis and antifolate properties of 10-alkyl-8,10-dideazaminopterins” (J Med Chem, 1984).

Data set [1] concerns Mus musculus. As to the kind of experiment: Compound was evaluated for antitumor activity against L1210 leukemia in mice and LD10 was determined 24 hour after subcutaneous administration in 10 E 6 cells implanted intraperitoneally. The format is ADME, organism-based. The note with it: in vivo, sc.
Data set [2] is filed under the species Mus musculus. Nature of the data set: Compound was evaluated for antitumor activity against L1210 leukemia in mice and percent increase in life span was determined. Format: functional.
For data set [3], the species on record is Mus musculus. As to the kind of experiment: Compound was evaluated for antitumor activity against L1210 leukemia in mice and median survival time was determined at ten mice per run. The format is functional.
The species named for data set [4] is Mus musculus. As to the kind of experiment: Compound was evaluated for antitumor activity against L1210 leukemia in mice and median survival time was determined at ten animals per run. The format is functional.

For `CC(Cc1ccc2nc(N)nc(N)c2n1)c1ccc(C(=O)NC(CCC(=O)O)C(=O)O)cc1` (stereo not drawn), the LD10 in the data set with Mus musculus [1] worked out at 0.6 mg/kg. In addition, in the data set filed under Mus musculus [2], the ILS (usually the gain in survival time of treated over control animals, in per cent) was determined as 203%. Moreover, the MST in the data set filed under Mus musculus [3] is 21.5 days.

`CCC(Cc1ccc2nc(N)nc(N)c2n1)c1ccc(C(=O)NC(CCC(=O)O)C(=O)O)cc1` (stereo not drawn) returned an LD10 in the data set on Mus musculus [1] of 1.5 mg/kg. This molecule yielded an MST in the data set filed under Mus musculus [4] of 23.8 days. Also, the increase in lifespan (ILS) in the data set filed under Mus musculus [2] was 235%.

On to `Nc1nc(N)c2nc(CCc3ccc(C(=O)NC(CCC(=O)O)C(=O)O)cc3)ccc2n1` (stereo not drawn), for which the LD10 in the data set on Mus musculus [1] was found to be 0.75 mg/kg. Further, the ILS in the data set filed under Mus musculus [2] turned out to be 189%.

Regarding `CCCC(Cc1ccc2nc(N)nc(N)c2n1)c1ccc(C(=O)NC(CCC(=O)O)C(=O)O)cc1` (stereo not drawn), the LD10 in the data set with Mus musculus [1] was 6 mg/kg. For the same molecule, the ILS in the data set filed under Mus musculus [2] was 176%.

Molecule `CN(Cc1cnc2nc(N)nc(N)c2n1)c1ccc(C(=O)N[C@@H](CCC(=O)O)C(=O)O)cc1` [METHOTREXATE] displayed an LD10 in the data set with Mus musculus [1] of 15 mg/kg. This molecule came in with an MST in the data set filed under Mus musculus [4] of 20.4 days. For the same molecule, the ILS in the data set filed under Mus musculus [2] is listed as 187%.
